Measurements published in PMC2685009, “Identification and Characterization of Inhibitors of Human Apurinic/apyrimidinic Endonuclease APE1” (PLoS ONE, 2009).
Read-outs that look alike come from different tables or passages of the source.

How the values were obtained:
[1] = test system: unlabeled double-stranded DNA substrate; assay: ThO dye-displacement assay (DNA binding); settings: for ThO displacement (in words): LOPAC dose-response profiling; for IC50: 50 nM DNA, 250 nM ThO
[2] = test system: AP site cleavage activity of HEK 293T whole cell extract; assay: Whole cell extract AP endonuclease activity assay (HEK 293T); format: biochemical, human; settings: inhibitor at 100 µM
Description: (§1) The radiotracer assay was performed essentially as described. In brief, prioritized candidate inhibitor compounds from the qHTS assay were incubated at various concentrations (100 µM data shown) with APE1 (100 pg) at room temperature for 15 min in 25 mM Tris pH 7.5, 25 mM NaCl, 1 mM MgCl2, 1 mM DTT and 0.01% Tween-20. At that time, 0.5 pmol ^32P-radiolabeled THF-containing 34 mer double-stranded DNA substrate was added. Incision reactions were then carried out immediately at 37°C for 10 min in a final volume of 10 µL. After the addition of an equal volume of stop buffer (0.05% bromophenol blue and xylene cynol, 20 mM EDTA, 95% formamide), the radiolabeled substrate and product were separated on a standard polyacrylamide denaturing gel and quantified by phosphorimager analysis.
(§2) HEK 293T or HeLa cells – maintained in DMEM with 10% fetal bovine serum and 1% Penicillin-Streptomycin – were harvested, washed with 1× PBS, re-suspended in cold 222 mM KCl, incubated on ice for 30 min, and clarified by centrifugation at 12,000×g for 15 min at 4°C [23]. The supernatant (whole cell extract) was retained, the protein concentration determined using the Bio-Rad Bradford reagent, and aliquots were stored at −80°C. AP endonuclease activity assays were performed with or without candidate inhibitor compounds as described above, except 60 ng HEK 293T or 80 ng of HeLa whole cell extract was used.

[3] = test system: AP site cleavage activity of HeLa whole cell extract; assay: Whole cell extract AP endonuclease activity assay (HeLa); format: biochemical, human; settings: inhibitor at 100 µM
Description: as §1, §2

[4] = design: method as in PMID 18042731; settings: cited from earlier work
APE1 [5] = molecular target: T1, APE1 (Homo sapiens, UniProt P27695); assay: qHTS fluorogenic AP site incision assay (TAMRA/BHQ-2 red substrate, 1536-well); format: biochemical
T1 construct: made in house
T1 sequence (P27695 whole entry): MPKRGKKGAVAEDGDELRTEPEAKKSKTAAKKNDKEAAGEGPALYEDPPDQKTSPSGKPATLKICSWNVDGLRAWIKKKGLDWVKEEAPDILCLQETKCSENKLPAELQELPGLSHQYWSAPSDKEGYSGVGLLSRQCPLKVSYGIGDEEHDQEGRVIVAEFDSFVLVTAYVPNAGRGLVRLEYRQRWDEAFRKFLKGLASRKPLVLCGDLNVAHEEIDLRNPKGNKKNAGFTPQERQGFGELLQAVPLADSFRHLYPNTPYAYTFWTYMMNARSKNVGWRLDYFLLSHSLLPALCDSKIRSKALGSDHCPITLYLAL
Description: Recombinant human APE1 and E. coli EndoIV were purified as previously described. Deoxyoligonucleotides containing a tetrahydrofuran (THF) AP site analog, carboxytetramethyl rhodamine (TAMRA), or Black Hole Quencher-2 (BHQ-2), as appropriate (see Figure 1), were purchased from Biosearch Technologies, Inc., (Novato, CA). To create double-stranded DNA substrates, equal volumes of 200 µM solutions of the respective strands in reaction buffer were mixed and incubated at 95°C for 5 min. The annealing mixture was allowed to cool gradually to room temperature. Annealing and assay experiments were performed in the following buffer: 50 mM Tris pH 7.5, 25 mM NaCl, 2 mM MgCl2, 1 mM DTT, 0.01% Tween-20.
Initial optimizations were carried out in 384-well format at a 40 µL total reaction volume. Briefly, 30 µL of APE1 were pipetted into the plate and incubated at room temperature for 10 min; subsequently, 10 µL of substrate were added to start the reaction. The final assay concentrations of the enzyme and substrate were 0.75 nM and 50 nM, respectively. Kinetic fluorescence data were collected on a ViewLux high-throughput CCD imager (Perkin Elmer, Waltham, MA) equipped with standard FITC (excitation filter 480 nm and emission filter 530 nm) or BODIPY (excitation filter 525 nm and emission filter 598 nm) optics.
Three µl of reagents (buffer in columns 3 and 4 as negative control and APE1 in columns 1, 2, 5–48) were dispensed into a 1536-well plate. Compounds (DMSO solutions) and control (DMSO only) (23 nL) were transferred via Kalypsys pintool equipped with 1536-pin array. The plate was incubated for 15 min at room temperature, and then 1 µL of substrate (50 nM final concentration) was added to start the reaction. Library plates were screened from the lowest to highest concentration.
Screening data were corrected and normalized, and concentration–effect relationships were derived by using in-house developed, publicly available algorithms (http://www.ncgc.nih.gov/pub/openhts/curvefit/). Percent activity was computed after normalization against the uninhibited, or neutral, control (64 wells, entire columns 1 and 2) and the no-enzyme, or 100% inhibited, control (64 wells, entire columns 3 and 4), respectively. A four parameter Hill equation was fitted to the concentration-response data by minimizing the residual error between the modeled and observed responses.

APE1 [6] = molecular target: T1, APE1; assay: Radiotracer (32P, gel-based) incision assay; format: biochemical; settings: for Gel: inhibition detected or not in radiotracer incision assay: APE1, 32P-labeled THF substrate
E. coli EndoIV = molecular target: T2, E. coli EndoIV (Escherichia coli, UniProt P0A6C1); assay: E. coli Endonuclease IV (EndoIV) profiling assay; format: biochemical
T2 construct: made in house
Description: EndoIV enzyme and substrate (same as that used with APE1) optimization tests were initially performed at a 40 µL final volume in a 384-well format. Reaction concentrations of 2 nM EndoIV and 50 nM DNA substrate were selected for subsequent experiments. For running the assay in 1536-well format, the same protocol as described for APE1 above was followed.

HeLa cells [7] = assay: Cell-based colony survival assay with MMS; design: species or system human; settings: HeLa colony formation, 0.25 mM MMS, 1 or 5 µM inhibitor
Description: To measure colony survival, HeLa cells were plated in 6-well plates 12–20 hr prior to treatment. Cells were treated as follows: (i) exposed only to control medium, (ii) exposed to 0.25 mM MMS alone for 1 hr, (iii) exposed to 1 or 5 µM of the indicated inhibitor compound alone for 4 hr, or (iii) exposed to inhibitor compound alone for 3 hr and then with MMS for an additional 1 hr at 37°C. Following treatment, cells were washed once with 1× PBS and incubated in regular maintenance media (DMEM, 10% FBS) at 37°C for 10–15 days. Colonies formed were fixed in methanol, stained in methylene blue (Sigma), and counted to determine percent survival relative to the untreated controls.

HeLa cells [8] = assay: AP site measurement in chromosomal DNA; format: cell-based, human; settings: for AP site damage, inhibitor alone: 5 µM inhibitor alone, relative to control cells; for AP site damage, inhibitor plus MMS: 5 µM inhibitor plus MMS
Description: HeLa cells were treated as above, except only at 5 µM inhibitor where indicated. Following exposure, chromosomal DNA was isolated and steady-state AP site levels were measured using the DNA Damage Quantification Kit from Dojindo Molecular Technologies, Inc. (Gaithersburg, MD) as previously described.

[9] = 50 nM substrate, 0.75 nM APE1, read-out: qHTS IC50 (primary screen, APE1)
[10] = range of inhibitor concentrations, data not shown, read-out: approximate IC50 in radiotracer assay
[11] = 2 nM EndoIV, 50 nM substrate, read-out: Endo IV IC50 (E. coli EndoIV profiling)

| SMILES | ThO displacement (in words) [1] | inhibition of total AP site cleavage activity [2] | inhibition of total AP site cleavage activity [3] | IC50 (APE1 [5]; [9]) [nM] | Gel: inhibition detected or not in radiotracer incision assay (APE1 [6]) | IC50 (APE1 [6]; [10]) [nM] | IC50 [1] [nM] | activity against EndoIV compared with APE1 (in words) (E. coli EndoIV) | IC50 (E. coli EndoIV; [11]) [nM] | other results |
| --- | --- | --- | --- | --- | --- | --- | --- | --- | --- | --- |
| Cn1cc(NC(=O)c2cc(NC(=O)c3cc(NC=O)cn3C)cn2C)cc1C(=O)NCCC(=N)N [distamycin] | strong displacement activity | – | – | – | – | – | – | – | – | – |
| O=C(O)c1cc[c]([Sb](=[O])([OH])[OH])cc1[N+](=O)[O-] [NSC-13755] | – | complete inhibition | complete inhibition | – | – | – | – | – | – | outcome in cell-based experiments [4]: fail in cell-based experiments |
| Nc1c(S(=O)(=O)O)cc(Nc2ccc(Nc3nc(Cl)nc(Nc4cccc(S(=O)(=O)O)c4)n3)c(S(=O)(=O)O)c2)c2c1C(=O)c1ccccc1C2=O [Reactive Blue 2] | – | ≥ 80% | ≥ 80% | 250 | Yes | < 500 | 8900 | completely inactive or weakly active | 10000 | percent cell killing, MMS plus inhibitor relative to alkylator or inhibitor alone (HeLa cells [7]): greater than additive increase; AP site damage, inhibitor alone (HeLa cells [8]): increased AP site damage relative to the control cells; AP site damage, inhibitor plus MMS (HeLa cells [8]): potentiated the genotoxic potential of MMS |
| CC(=O)[C@]1(O)Cc2c(O)c3c(c(O)c2[C@@H](O[C@H]2C[C@H](N)[C@H](O)[C@H](C)O2)C1)C(=O)c1ccccc1C3=O [idarubicin] | strong ThO displacement profiles | – | – | – | – | – | – | – | – | – |
| O=C(O)C1=CC(=C(c2ccc(O)c(C(=O)O)c2)c2ccc(O)c(C(=O)O)c2)C=CC1=O [aurintricarboxylic acid] | – | – | – | 55 | Yes | – | 1300 | completely inactive or weakly active | 25000 | APE1 inhibition in fluorogenic assay (in words) (APE1 [5]): low nanomolar range |
| N#C/C(=C\c1ccc(O)c(O)c1)C(=O)c1ccc(O)c(O)c1 [Tyrphostin AG 538] | weak or no displacement activity | mild inhibition | mild inhibition | 280 | Yes | 500 to 2000 | 20000 | similarly potent against each endonuclease | 280 | – |
| CO/N=C(\C(=O)N[C@@H]1C(=O)N2C(C(=O)O)=C(CSc3nc(=O)c(=O)[nH]n3C)CS[C@H]12)c1csc(N)n1 [ceftriaxone sodium] | – | – | – | 2200 | No | > 50000 | > 57000 | – | 11000 | – |
| C=C/C(C)=C/[C@@]1(C)SC(=O)C(C)=C1O [thiolactomycin] | weak or no displacement activity | no effect | no effect | 1000 | Yes | 500 to 2000 | > 57000 | completely inactive or weakly active | 20000 | ThO displacement (in words) ([1]; listed as Thiolactomycin): does not affect ThO displacement |
| COc1cccc2c1C(=O)c1c(O)c3c(c(O)c1C2=O)C[C@@](O)(C(=O)CO)C[C@@H]3O[C@H]1C[C@H](N)[C@H](O)[C@H](C)O1 [doxorubicin] | strong ThO displacement profiles | – | – | – | – | – | – | – | – | – |
| NC(Cc1cc(O)c(O)cc1O)C(=O)O (racemic) [6-hydroxy-DL DOPA, 6-hydroxy-DL-DOPA] | – | complete inhibition | complete inhibition | – | Yes | – | 7900 | completely inactive or weakly active | – | IC50 (APE1 [5]): 110 nM; IC50 (APE1 [6]): < 500 nM; IC50 (E. coli EndoIV): 10000 nM; percent cell killing, MMS plus inhibitor relative to alkylator or inhibitor alone (HeLa cells [7]): greater than additive increase; AP site damage, inhibitor alone (HeLa cells [8]): increased AP site damage relative to the control cells; AP site damage, inhibitor plus MMS (HeLa cells [8]): potentiated the genotoxic potential of MMS |
| O=C1c2c(O)ccc(O)c2C(=O)c2c(NCCNCCO)ccc(NCCNCCO)c21 [mitoxantrone] | positive | – | – | 2000 | Yes | < 500 | 350 | similarly potent against each endonuclease | 2000 | – |
| CC(=O)OCC1=C(C(=O)O)N2C(=O)[C@@H](NC(=O)CSc3ccncc3)[C@H]2SC1 [cephapirin sodium] | – | – | – | 8900 | No | > 50000 | > 57000 | similarly potent against each endonuclease | 16000 | – |
| Cc1nc(N=Nc2cc(S(=O)(=O)O)c3cc([N+](=O)[O-])cc(S(=O)(=O)O)c3c2)c(COP(=O)(O)O)c(C=O)c1O [PPNDS tetrasodium] | – | – | – | 2800 | No | > 50000 | 10000 | – | 16000 | – |
| CN(N=O)c1ccc(O)c(O)c1 [methyl 3,4-dephostatin, methyl-3,4-dephostatin] | – | no effect | no effect | 500 | Yes | 500 to 2000 | 14000 | completely inactive or weakly active | 8900 | – |
